Nine molecules from patent US8697703B2, “Piperazine derivatives for blocking Cav2.2 calcium channels” (Convergence Pharmaceuticals Limited, priority 2010, dated 2014) can be followed below.

Assay [1] concerns the target T1, hCav3.2 channels (T-type; CACNA1H) (Homo sapiens, UniProt O95180, V664A).
T1 construct: predicted protein is equivalent to the full-length human variant NP_066921; expressed in transfected cells; plasmid pCIN5-human-alpha1H
Briefly: Cav3.2 assay (T-type), IonWorks Quattro planar array electrophysiology in stable HEK293 cells. The class given is cell-based. The conditions noted are these: for IC50: current elicited by the 1st depolarising pulse inhibited by 50%, read-out: pIC50 (tonic) (converted). The text has this: The ability of the compounds of the invention to modulate the voltage-gated calcium channel subtype Cav3.2 (T-Type) may be determined by the following assay.
Stable cell lines expressing hCav3.2 channels were created by transfecting HEK293 cells with the plasmid pCIN5-human-alpha1H. pCIN5-human-alpha1H predicted protein is equivalent to the full-length human variant NP_066921 for the human ion channel CACNA1H (voltage dependent calcium channel T type alpha 1H subunit), the longer variant form. It contains minor alleles for two SNPs (Ala 664 and Arg 2077). However, in the absence of any knowledge about compound binding at this ion channel, these rare variants are not seen as issues. Stable cell line was selected by 500 ug/ml G418 (geneticin). The best cell line clone was selected by IonWorks. Cells were cultured in DMEM/F12 medium supplemented by 10% Foetal Bovine Serum (Gibco/Invitrogen #041-95750), 1% non-essential amino acids (PAA, M11-003) and 1% Penicillin-Streptomycin (Invitrogen, 15140-122). 500 ug/ml of G418 (PAA, P11-012) was added to maintain channel expression. Cells were grown and maintained at 37° C. in a humidified environment containing 5% CO2 in air. Cells were detached from the T175 culture flask for passage and harvesting using TrypLE (Gibco/Invitrogen cat #12604). For the experiment, cells were plated in a T175 culture flask 48 hours before running the assay to reach a 50-80% confluence the day of the experiment.
Cells were grown to 50-80% confluence in a T175 flask. Cells were removed from the incubator and the media was aspirated. Cells were washed with 5 ml of warmed (37° C.) TrypLE and then 3 ml of warmed (37° C.) TrypLE was added to the flask for 6 min. The flask was tapped to dislodge cells and 5 ml of warmed (37° C.) external buffer with barium and magnesium was added to prepare a cell suspension. Cell suspension was then placed into a 15 ml centrifuge tube and centrifuged for 2 min at 1000 rpm. After centrifugation, the supernatant was removed and the cell pellet was resuspended in 4-5 ml of pre-warmed (37° C.) external solution with barium and magnesium using a 5 ml pipette to break up the pellet.
Currents were recorded at room temperature using the IonWorks Quattro™ planar array electrophysiology technology (Molecular Devices Corp.) with PatchPlate™ PPC for Ionworks Quattro (Molecular Devices, 9000-0902). Stimulation protocols and data acquisition were carried out using a microcomputer (Dell Pentium 4). In order to determine planar electrode hole resistances (Rp), a 10 mV voltage step was applied across each well. These measurements were performed before cell addition. After cell addition a seal test was performed by applying a voltage step from −80 mV to −70 mV for 160 ms prior to antibiotic amphotericin-B solution (Sigma, […]) circulation to achieve intracellular access. Leak subtraction was conducted in all experiments by applying a 80 ms hyperpolarizing (10 mV) prepulse followed by a 80 ms at the holding potential before the test pulses, to measure leak current. Test pulses stepping from the holding potential of −120 mV to −40 mV were applied for 25 ms and repeated 10 times at a frequency of 3 Hz. In all experiments, the test pulse protocol was performed in the absence (pre-read) and presence (post-read) of a compound. Pre- and post-reads were separated by a compound addition followed by a 10 minute incubation.
The intracellular solution contained the following (in mM): K-gluconate 120, KCl 20, MgCl2 5, EGTA 5, HEPES 10, adjusted to pH 7.35.
Amphotericin-B solution was prepared as 50 mg/ml stock solution in DMSO and diluted to a final working concentration of 0.2 mg/ml in intracellular solution. The external solution contained the following (in mM): Na-gluconate 120, NaCl 20, HEPES 10, MgCl2 1, BaCl2 5, with a pH of 7.35.
Compounds were prepared in DMSO as 10 mM stock solutions and subsequent 1:3 serial dilutions were performed. […]
Background: In patch-clamp work, channel activity is measured electrically.

Assay [2] deals with T2, hCav2.2 (N-type) calcium channel: human Cav2.2α (α1B) subunit with human β3 and α2δ1 auxiliary subunits (Homo sapiens, UniProt Q00975).
T2 construct: expressed in transfected cells; plasmids pCIN5-hCav2.2, pCIH-hCav β3, pCIP-α2δ1
Kind of assay: hCav2.2 assay (N-type), IonWorks planar array electrophysiology in stable HEK293 cells. To be noted: hydrochloride. It is filed as cell-based. The protocol: Compounds as defined in the first or second aspect may be tested for in vitro biological activity in the hCav2.2 assay (N-type) in accordance with the following studies:
Stable cell lines expressing the human Cav2.2α (α1B) subunit, along with the human β3 and α2δ1 auxiliary subunits were created following sequential transfection and selection of human embryonic kidney (HEK293) cells. HEK293 cells were cultured in Dulbecco's modified Eagles media/F12 media (Invitrogen, Cat #041-95750V) containing 10% fetal bovine serum, with added L-glutamine (2 mM; Invitrogen, Cat #25030-024) and non-essential amino acids (5%; Invitrogen, Cat #11140-035). […] These clonal cell lines were assessed for Cav2.2 α/β3-mediated current expression using the IonWorks planar array electrophysiology technology (described below). […]
Currents were recorded at room temperature (21-23° C.) using the IonWorks planar array electrophysiology technology (Molecular Devices Corp.). […] In all experiments, the test pulse protocol was performed in the absence (pre-read) and presence (post-read) of a compound. Pre- and post-reads were separated by a compound addition followed by a 3-3.5 min incubation. […]

Where “and” joins values, the source holds several entries; their conditions need not be identical. Identical values can stand only once. Counter-ions that a name gives are not always drawn.

T1 sequence (O95180 whole entry V664A): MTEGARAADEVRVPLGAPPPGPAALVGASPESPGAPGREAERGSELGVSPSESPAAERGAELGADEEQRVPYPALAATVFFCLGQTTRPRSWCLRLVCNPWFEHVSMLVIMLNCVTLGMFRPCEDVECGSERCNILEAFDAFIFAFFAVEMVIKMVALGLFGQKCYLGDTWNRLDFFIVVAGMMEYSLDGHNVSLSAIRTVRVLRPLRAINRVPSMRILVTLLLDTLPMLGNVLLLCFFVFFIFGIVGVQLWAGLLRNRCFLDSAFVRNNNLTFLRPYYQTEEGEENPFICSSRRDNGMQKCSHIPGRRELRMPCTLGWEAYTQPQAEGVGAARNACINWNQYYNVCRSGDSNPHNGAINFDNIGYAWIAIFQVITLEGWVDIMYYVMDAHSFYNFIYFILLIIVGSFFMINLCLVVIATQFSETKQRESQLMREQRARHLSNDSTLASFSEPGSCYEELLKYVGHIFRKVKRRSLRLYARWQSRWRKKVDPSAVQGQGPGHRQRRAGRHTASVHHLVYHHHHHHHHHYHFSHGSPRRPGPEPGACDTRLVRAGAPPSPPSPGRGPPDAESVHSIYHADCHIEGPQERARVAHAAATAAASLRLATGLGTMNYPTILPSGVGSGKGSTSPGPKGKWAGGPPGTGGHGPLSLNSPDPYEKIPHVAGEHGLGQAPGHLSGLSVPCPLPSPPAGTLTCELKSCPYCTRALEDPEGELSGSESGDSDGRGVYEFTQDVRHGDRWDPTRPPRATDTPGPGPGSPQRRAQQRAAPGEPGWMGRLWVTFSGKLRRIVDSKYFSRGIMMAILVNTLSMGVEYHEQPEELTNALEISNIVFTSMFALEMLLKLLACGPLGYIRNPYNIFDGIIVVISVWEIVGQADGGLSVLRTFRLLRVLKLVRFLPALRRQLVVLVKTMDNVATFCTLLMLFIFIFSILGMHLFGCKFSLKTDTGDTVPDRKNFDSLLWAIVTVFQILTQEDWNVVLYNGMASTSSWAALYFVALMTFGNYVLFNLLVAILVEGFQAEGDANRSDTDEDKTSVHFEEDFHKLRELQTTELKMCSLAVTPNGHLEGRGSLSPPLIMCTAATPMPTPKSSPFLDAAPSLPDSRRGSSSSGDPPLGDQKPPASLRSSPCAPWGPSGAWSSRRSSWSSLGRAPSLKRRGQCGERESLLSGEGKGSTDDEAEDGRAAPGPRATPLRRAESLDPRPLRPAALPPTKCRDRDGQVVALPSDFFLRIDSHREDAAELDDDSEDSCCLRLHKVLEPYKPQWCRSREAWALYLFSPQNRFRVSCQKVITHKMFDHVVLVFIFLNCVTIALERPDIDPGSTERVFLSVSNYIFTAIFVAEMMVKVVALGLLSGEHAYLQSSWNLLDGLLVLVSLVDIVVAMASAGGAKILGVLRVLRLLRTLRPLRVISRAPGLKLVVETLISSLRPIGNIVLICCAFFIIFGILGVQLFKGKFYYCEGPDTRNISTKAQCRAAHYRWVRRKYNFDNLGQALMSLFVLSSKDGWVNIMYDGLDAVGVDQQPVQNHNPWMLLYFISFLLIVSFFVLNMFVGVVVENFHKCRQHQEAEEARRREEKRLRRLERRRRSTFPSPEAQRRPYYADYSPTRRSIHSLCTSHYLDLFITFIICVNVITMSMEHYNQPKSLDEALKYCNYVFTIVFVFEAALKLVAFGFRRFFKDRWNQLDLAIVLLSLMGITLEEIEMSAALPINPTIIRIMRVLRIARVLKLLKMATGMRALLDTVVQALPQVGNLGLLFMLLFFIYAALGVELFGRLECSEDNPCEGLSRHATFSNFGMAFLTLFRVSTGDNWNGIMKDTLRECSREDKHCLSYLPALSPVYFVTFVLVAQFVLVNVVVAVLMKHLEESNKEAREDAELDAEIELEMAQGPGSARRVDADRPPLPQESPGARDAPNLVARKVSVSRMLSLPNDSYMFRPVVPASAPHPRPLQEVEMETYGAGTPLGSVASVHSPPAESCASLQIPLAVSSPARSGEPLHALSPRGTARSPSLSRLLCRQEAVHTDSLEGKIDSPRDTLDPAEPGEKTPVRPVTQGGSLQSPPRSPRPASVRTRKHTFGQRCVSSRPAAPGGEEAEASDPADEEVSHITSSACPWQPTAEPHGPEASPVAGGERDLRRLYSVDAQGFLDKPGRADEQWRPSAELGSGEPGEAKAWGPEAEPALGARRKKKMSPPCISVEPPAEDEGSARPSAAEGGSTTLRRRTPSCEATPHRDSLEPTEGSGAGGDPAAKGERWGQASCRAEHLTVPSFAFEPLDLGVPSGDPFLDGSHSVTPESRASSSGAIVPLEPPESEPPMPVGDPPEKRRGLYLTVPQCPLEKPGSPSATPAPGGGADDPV

Consider `C[C@H]1CN(S(=O)(=O)c2ccc(C(F)(F)F)cc2)CCN1C(=O)c1ccc2cccnc2c1` [Compound 1, 7-[((2S)-2-Methyl-4-{[4-(trifluoromethyl)phenyl]sulfonyl}-1-piperazinyl)carbonyl]quinoline], for which the IC50 in assay [1] is no more than 31.6 µM. With `Cc1c(C(=O)N2CCN(S(=O)(=O)c3ccc(OC(F)(F)F)cc3)CC2)ccc2cccnc12` [Compound 2, 8-Methyl-7-{[4-({4-[(trifluoromethyl)oxy]phenyl}sulfonyl)-1-piperazinyl]carbonyl}quinoline], the IC50 in assay [1] was no more than 31.6 µM. Regarding `Cl.O=C(c1ccc2ccccc2n1)N1CCN(S(=O)(=O)c2ccc(C(F)(F)F)cc2)CC1` [Compound 3, 2-[(4-{[4-(Trifluoromethyl)phenyl]sulfonyl}-1-piperazinyl)carbonyl]quinoline hydrochloride], the “pUD30 (use-dependent)” value in assay [1] (concentration producing 30% use-dependent inhibition, 10th versus 1st depolarising pulse, 3 Hz, -120 mV to -40 mV, hydrochloride) was determined as 5.4; in assay [2] (concentration producing 30% use-dependent inhibition, 10th versus 1st depolarising pulse, 10 Hz, -90 mV to +10 mV) it was 5.8. Further, the IC50 in assay [1] is 25.1 µM and ≤ 31.6 µM. The “pIC50 (tonic)” value in assay [2] (current elicited by the 1st depolarising pulse inhibited by 50%) is 4.6.

Consider `Cc1cc(C#N)ccc1S(=O)(=O)N1CCN(C(=O)c2ccc3cccnc3c2)CC1` [Compound 7, 3-Methyl-4-{[4-(7-quinolinylcarbonyl)-1-piperazinyl]sulfonyl}benzonitrile hydrochloride], for which the IC50 in assay [1] is no more than 31.6 µM. The same measure, in the same setting: the same measure for `Cc1ccc2ccc(C(=O)N3CCN(S(=O)(=O)c4ccc(C#N)cc4C)CC3)cc2n1` [Compound 9, 3-Methyl-4-({4-[(2-methyl-7-quinolinyl)carbonyl]-1-piperazinyl}sulfonyl)benzonitrile hydrochloride]: no more than 31.6 µM. On the same count and under the same terms, in the case of `Cc1ccc2ccc(C(=O)N3CCN(S(=O)(=O)c4ccc(C#N)cc4C)C[C@@H]3C)cc2n1` [Compound 10, 3-Methyl-4-({(3S)-3-methyl-4-[(2-methyl-7-quinolinyl)carbonyl]-1-piperazinyl}sulfonyl)benzonitrile] it was no more than 31.6 µM.

In the case of `Cc1cc(C#N)ccc1S(=O)(=O)N1CCN(C(=O)c2ccc3cccnc3c2C)[C@@H](C)C1` [Compound 15, 3-Methyl-4-({(3S)-3-methyl-4-[(8-methyl-7-quinolinyl)carbonyl]-1-piperazinyl}sulfonyl)benzonitrile], the IC50 in assay [1] is no more than 31.6 µM.

As to `Cc1cc(C#N)ccc1S(=O)(=O)N1CCN(C(=O)c2cccc3ccncc23)CC1` [Compound 26, 4-{[4-(8-Isoquinolinylcarbonyl)-1-piperazinyl]sulfonyl}-3-methylbenzonitrile hydrochloride], in assay [1], the IC50 is no more than 31.6 µM.

As to `O=C(c1cccc2cccnc12)N1CCN(S(=O)(=O)c2ccc(OC(F)(F)F)cc2)CC1` [Compound 30, 8-{[4-({4-[(Trifluoromethyl)oxy]phenyl}sulfonyl)-1-piperazinyl]carbonyl}quinoline], the IC50 in assay [1] was no more than 31.6 µM.
